Experimental data taken from patent US12065404B2, “C4-carboxylic acid-substituted tryptamine derivatives and methods of using” (priority 2022, dated 2024).
“And” between values parts separate entries of the source, which are not always exact repeats. Equal values may be shown once.

Legend:
[1] = Stability in enzyme-free control buffer; type: physicochemical; conditions: pH 7.4
Source text: (§1) A fundamental evaluation in drug development is the assessment of absorption, distribution, metabolism, excretion, and pharmacokinetics (ADME/PK) (Eddershaw et al., 2000, Drug Discovery Today 5(9): 409-414). […] Drug stability upon exposure to human liver microsomes and liver S9 cellular fractions is a common in vitro assay to approximate in vivo, liver-based drug metabolism (Richardson et al., 2016 Drug Metabolism Letters 10:83-90). First-pass metabolism is also often approximated in vitro using intestinal microsome and cellular S9 fractions (Hatley et al., 2017, Biopharmaceuticals & Drug Disposition, 38(2):155-160). […] Supernatants were analyzed for the presence of candidate prodrugs (parent molecule) and psilocin (the predicted metabolite) using Orbitrap LC-MS (Thermo Scientific) using previously described methods (Menendez-Perdomo et al., 2021, J Mass Spectrom, 56: e4683). […] Assay concentrations (μM) of both parent ‘prodrug’ molecule and psilocin metabolite, as quantified through LC-MS using routine standard curve procedures, were plotted as functions of assay time (minutes). The metabolism rate (T1/2) was determined from the metabolism curve plot using the one phase decay feature of GraphPad PRISM software (Version 9.2.0). The quantity of parent prodrug at time zero was set as 100%.

[2] = In vitro metabolic stability / psilocin release, AB serum; type: in vitro ADME; conditions: 10% human AB serum
Source text: as §1, with “100%. […]” for “100%.”

[3] = Mouse pharmacokinetic (PK) study, parent compound and psilocin metabolite in plasma; type: in vivo, C57Bl/6 mice; conditions: mouse; for Plasma concentration of psilocin: 24 h
Source text: Briefly, the procedure was as follows. […] 19, 2022.

[4] = In vitro metabolic stability / psilocin release, liver fractions (HLM, HLS9); type: in vitro ADME, human; conditions: HLM and HLS9, 2 hours, 37° C.
Source text: as §1, with “100%. […]” for “100%.”

## CN(C)CCc1c[nH]c2cccc(OP(=O)(O)O)c12 [psilocybin, reference compound]
[1]
  Stability in assay buffer: stability of psilocybin was confirmed in assay buffer
[2]
  Stability / conversion to psilocin in serum: stable in serum with no conversion to psilocin
[3]; male, C57Bl/6, plasma, iv, 1 mg/kg i.v., individual animals, read-out: tmax of administered (parent) compound
  tmax: 5 min
[3]; 1 mg/kg i.v.
  Detectability of administered compound in plasma, i.v. administered animals: only detectable in i.v. administered animals
[3]; oral, any dose (1, 3, 10 mg/kg)
  Detectability of administered compound in plasma, orally administered animals: not detectable in orally administered animals at any dose
[3]; 1 mg/kg i.v., 5 min, individual animals, 1 mg/kg
  Plasma concentration of administered (parent) compound: 19.7 ng/mL and 76.8 ng/mL and 334 ng/mL
[3]; 1 mg/kg i.v., 0.25 h, individual animals, 1 mg/kg
  Plasma concentration of administered (parent) compound: 3.32 ng/mL and 8.95 ng/mL and 27.2 ng/mL
[3]; 1 mg/kg i.v., 0.5 h, individual animals, 1 mg/kg
  Plasma concentration of administered (parent) compound: No Peak and 2.35 ng/mL and 6.21 ng/mL
[3]; 1 mg/kg i.v., 1 h, individual animals, 1 mg/kg
  Plasma concentration of administered (parent) compound: No Peak
[3]; 1 mg/kg i.v., 2 h, individual animals
  Plasma concentration of administered (parent) compound: No Peak
[3]; 1 mg/kg i.v., 4 h, individual animals
  Plasma concentration of administered (parent) compound: No Peak
[3]; 1 mg/kg i.v., 6 h, individual animals
  Plasma concentration of administered (parent) compound: No Peak
[3]; 1 mg/kg i.v., 8 h, individual animals, 1 mg/kg
  Plasma concentration of administered (parent) compound: No Peak
[3]; 1 mg/kg i.v., individual animals
  tmax of administered (parent) compound: 5 min
[3]; 1 mg/kg i.v., individual animals, 1 mg/kg
  Cmax of administered (parent) compound: 19.7 ng/mL and 76.8 ng/mL and 334 ng/mL
[3]; 1 mg/kg i.v., mean ± SD
  Cmax of administered (parent) compound: 144 ± 167 ng/mL
  tmax of administered (parent) compound: 5 ± 0 min
[3]; prodrug 1.56 mg/kg oral (nominal 1 mg/kg), individual animals
  Plasma concentration of psilocin: BLQ (BLQ denotes below the lower limit of quantitation (0.2 ng/ml).)
[3]; prodrug 3 mg/kg oral, individual animals
  Plasma concentration of psilocin: BLQ (BLQ denotes below the lower limit of quantitation (0.2 ng/ml).)
[4]
  Stability / conversion to psilocin in liver fractions: stable in liver fractions with no conversion to psilocin
